Here are results for nine molecules from US10392383B2, “3-(1H-benzo[d]imidazol-2-yl)-1H-pyrazolo[4,3-b]pyridines and therapeutic uses thereof” (Samumed, LLC, priority 2015, dated 2019).

Molecules are shown by their SMILES. A value given as a limit tells only on which side of the number the result lay.

Assay [1] deals with Wnt activity (Sp5-Luc reporter, Wnt-responsive promoter) in SW480 colon carcinoma cells. Put plainly: Wnt activity screening assay: Sp5-Luc reporter gene assay in SW480 cells. It is filed as cell-based. The conditions noted are these: Homo sapiens; for inhibition at 10 µM: read-out: percent inhibition at 10 μM (given for EC50 of >10 μM); for EC50: overnight incubation, 10-point curve starting from 10 μM. The text has this: The screening assay for Wnt activity is described as follows. Reporter cell lines can be generated by stably transducing cancer cell lines (e.g., colon cancer) or primary cells (e.g., IEC-6 intestinal cells) with a lentiviral construct that includes a Wnt-responsive promoter driving expression of the firefly luciferase gene.
SW480 colon carcinoma cells were transduced with a lentiviral vector expressing luciferase with a human Sp5 promoter consisting of a sequence of eight TCF/LEF binding sites. SW480 cells stably expressing the Sp5-Luc reporter gene and a hygromycin resistance gene were selected by treatment with 150 μg/mL of hygromycin for 7 days. These stably transduced SW480 cells were expanded in cell culture and used for all further screening activities. Each compound was dissolved in DMSO as a 10 mM stock and used to prepare compound source plates. Serial dilution (1:3, 10-point dose-response curves starting from 10 μM) and compound transfer was performed using the ECHO 550 (Labcyte, Sunnyvale, Calif.) into 384-well white solid bottom assay plates (Greiner Bio-One) with appropriate DMSO backfill for a final DMSO concentration of 0.1%. For Sp5-Luc reporter gene assays, the cells were plated at 4,000 cells/well in 384-well plates with medium containing 1% fetal bovine serum and incubated overnight at 37° C. and 5% CO2. Following incubation, 20 μl of BrightGlo luminescence reagent (Promega) was added to each well of the 384-well assay plates. The plates were placed on an orbital shaker for 2 min and then luminescence was quantified using the Envision (Perkin Elmer) plate reader. Readings were normalized to DMSO only treated cells, and normalized activities were utilized for EC50 calculations using the dose-response log (inhibitor) vs. response-variable slope (four parameters) nonlinear regression feature available in GraphPad Prism 5.0 (or Dotmatics). For EC50 of >10 μM, the percent inhibition at 10 μM is provided.
For orientation: Reporter assays use an easily measured gene product as a stand-in for the process of interest.

Assay [2] has as its system primary human fibroblasts derived from IPF patients (LL29 cells) treated with TGF-β1. Put plainly: Inhibition of the fibrotic process: αSMA staining in TGF-β1-treated LL29 fibroblasts. Format: cell-based. The conditions noted are these: Fibroblast; for inhibition at 10 µM: LL29 fibroblasts treated with TGF-β1, Table 4, read-out: percent inhibition at 10 μM (given in parentheses for EC50 >10 μM); for EC50: 96 h, LL29 fibroblasts treated with TGF-β1 (20 ng/mL), 4 days, Table 4. The text has this: Representative compounds were screened using primary human fibroblasts (derived from IPF patients) treated with TGF-β1 to determine their ability to inhibit the fibrotic process.
Human Fibroblast Cell Culture: Primary human fibroblasts derived from IPF patients (LL29 cells) [^1Xiaoqiu Liu, et. al., “Fibrotic Lung Fibroblasts Show Blunted Inhibition by cAMP Due to Deficient cAMP Response Element-Binding Protein Phosphorylation”, Journal of Pharmacology and Experimental Therapeutics (2005), 315(2), 678-687; ^2Watts, K. L., et. al., “RhoA signaling modulates cyclin D1 expression in human lung fibroblasts; implications for idiopathic pulmonary fibrosis”, Respiratory Research (2006), 7(1), 88] were obtained from American Type Culture Collection (ATCC) and expanded in F12 medium supplemented with 15% Fetal Bovine Serum and Penicillin/Streptomycin.
Compound Screening: Each compound was dissolved in DMSO as a 10 mM stock and used to prepare compound source plates. Serial dilution (1:2, 11-point dose-response curves from 10 μM to […]) and compound transfer was performed using the ECHO 550 (Labcyte, Sunnyvale, Calif.) into 384-well clear bottom assay plates (Greiner Bio-One) with appropriate DMSO backfill for a final DMSO concentration of 0.1%. LL29 cells are plated at 1,500 cells/well in 80 μL/well F12 medium supplemented with 1% Fetal Bovine Serum. One hour after addition of the cells, TGF-β1 (Peprotech; 20 ng/mL) was added to the plates to induce fibrosis (ref. 1 and 2 above). Wells treated with TGF-β1 and containing DMSO were used as controls. Cells were incubated at 37° C. and 5% CO2 for 4 days. Following incubation for 4 days, SYTOX green nucleic acid stain (Life Technologies [Thermo Fisher Scientific]) was added to the wells at a final concentration of 1 μM and incubated at room temperature for 30 min. Cells were then fixed using 4% formaldehyde (Electron Microscopy Sciences), washed 3 times with PBS followed by blocking and permeabilization using 3% Bovine Serum Albumin (BSA; Sigma) and 0.3% Triton X-100 (Sigma) in PBS. Cells were then stained with antibody specific to α-smooth muscle actin (αSMA; Abcam) (ref. 1 and 2 above) in 3% Bovine Serum Albumin (BSA; Sigma) and 0.3% Triton X-100 (Sigma) in PBS, and incubated overnight at 4° C. Cells were then washed 3 times with PBS, followed by incubation with Alexa Flor-647 conjugated secondary antibody (Life Technologies [Thermo Fisher Scientific]) and DAPI at room temperature for 1 hour. Cells were then washed 3 times with PBS and plates were sealed for imaging. αSMA staining was imaged by excitation at 630 nm and emission at 665 nm and quantified using the Compartmental Analysis program on the CellInsight CX5 (Thermo Scientific). Dead or apoptotic cells were excluded from analysis based on positive SYTOX green staining. % of total cells positive for αSMA were counted in each well and normalized to the average of 11 wells treated with TGF-β1 on the same plate using Dotmatics' Studies Software. The normalized averages (fold change over untreated) of 3 replicate wells for each compound concentration were used to create dose-responses curves and EC50 values were calculated using non-linear regression curve fit in the Dotmatics' Studies Software. For EC50 of >10 μM, the percent inhibition at 10 μM is provided.

In general, inhibition refers to the change of the read-out against control, counted positive when it falls. What is called EC50 is the concentration that produces a half-maximal response. For `CS(=O)(=O)NCc1cc(F)cc(-c2cccc3[nH]c(-c4n[nH]c5ccc(-c6cncc(NC(=O)c7ccccc7)c6)nc45)nc23)c1` [Compound 487, N-(5-(3-(4-(3-Fluoro-5-(methylsulfonamidomethyl)phenyl)-1H-benzo[d]imidazol-2-yl)-1H-pyrazolo[4,3-b]pyridin-5-yl)pyridin-3-yl)benzamide], in assay [1], the inhibition at 10 µM came out at 0% and the half-maximal effective concentration (EC50) was more than 10 µM. In assay [2], the inhibition at 10 µM was found to be 0% and the EC50 is more than 10 µM.
Consider `Fc1cccc(-c2cccc3[nH]c(-c4n[nH]c5ccc(C6=CCNCC6)nc45)nc23)c1` [Compound 506, 3-(4-(3-Fluorophenyl)-1H-benzo[d]imidazol-2-yl)-5-(1,2,3,6-tetrahydropyridin-4-yl)-1H-pyrazolo[4,3-b]pyridine], for which, in assay [1], the inhibition at 10 µM turned out to be 10% and the half-maximal effective concentration (EC50) is more than 10 µM. This molecule also displayed an EC50 in assay [2] of 1.6 µM.
For `Fc1cccc(-c2cccc3[nH]c(-c4n[nH]c5ccc(-c6cn[nH]c6)nc45)nc23)c1` [Compound 507, 3-(4-(3-Fluorophenyl)-1H-benzo[d]imidazol-2-yl)-5-(1H-pyrazol-4-yl)-1H-pyrazolo[4,3-b]pyridine], in that order: 36%, more than 10 µM and 2.98 µM.
In the case of `Fc1cccc(-c2cccc3[nH]c(-c4n[nH]c5ccc(-c6cnccn6)nc45)nc23)c1` [Compound 520, 3-(4-(3-Fluorophenyl)-1H-benzo[d]imidazol-2-yl)-5-(pyrazin-2-yl)-1H-pyrazolo[4,3-b]pyridine], the inhibition at 10 µM in assay [1] amounted to 26%. Besides, the EC50 in assay [1] is more than 10 µM; in assay [2] it was 4.29 µM.
In the case of `c1cc(-c2ccncc2)c2nc(-c3n[nH]c4ccc(-c5cncc(OC6CCNCC6)c5)nc34)[nH]c2c1` [Compound 576, 5-(5-(Piperidin-4-yloxy)pyridin-3-yl)-3-(4-(pyridin-4-yl)-1H-benzo[d]imidazol-2-yl)-1H-pyrazolo[4,3-b]pyridine], the values for the inhibition at 10 µM in assay [1] and in assay [2] were 25.7% and 9.2%, respectively. Besides, the 50% effective concentration (EC50) in assay [1] and in assay [2] was more than 10 µM in each case.
Regarding `c1ccc(COc2cncc(-c3ccc4[nH]nc(-c5nc6c(-c7ccncc7)cccc6[nH]5)c4n3)c2)cc1` [Compound 582, 5-(5-(Benzyloxy)pyridin-3-yl)-3-(4-(pyridin-4-yl)-1H-benzo[d]imidazol-2-yl)-1H-pyrazolo[4,3-b]pyridine], in assay [1], the inhibition at 10 µM is 39.1% and the half-maximal effective concentration (EC50) was more than 10 µM. A half-maximal response in assay [2] (EC50) required 1.42 µM.
For the molecule `c1cc(-c2ccncc2)c2nc(-c3n[nH]c4ccc(-c5cnccn5)nc34)[nH]c2c1` [Compound 584, 5-(Pyrazin-2-yl)-3-(4-(pyridin-4-yl)-1H-benzo[d]imidazol-2-yl)-1H-pyrazolo[4,3-b]pyridine], in assay [1], the inhibition at 10 µM amounted to 7.4% and the concentration for a half-maximal effect (EC50) was more than 10 µM. Also, in assay [2], the inhibition at 10 µM came to 10% and the half-maximal effective concentration (EC50) is more than 10 µM.
`O=C(CC1CCNCC1)Nc1cncc(-c2ccc3[nH]nc(-c4nc5c(-c6ccccn6)cccc5[nH]4)c3n2)c1` [Compound 593, 2-(Piperidin-4-yl)-N-(5-(3-(4-(pyridin-2-yl)-1H-benzo[d]imidazol-2-yl)-1H-pyrazolo[4,3-b]pyridin-5-yl)pyridin-3-yl)acetamide]: in assay [1], the inhibition at 10 µM is 26.6% and the EC50 is more than 10 µM. The molecule further yielded an EC50 in assay [2] of 1.37 µM.
Turning to `Cc1cn(-c2cccc3[nH]c(-c4n[nH]c5ccc(C6=CCNCC6)nc45)nc23)cn1` [Compound 618, 3-(4-(4-Methyl-1H-imidazol-1-yl)-1H-benzo[d]imidazol-2-yl)-5-(1,2,3,6-tetrahydropyridin-4-yl)-1H-pyrazolo[4,3-b]pyridine], in assay [1], the inhibition at 10 µM stood at 1.2% and the EC50 was more than 10 µM. Also, in assay [2], the inhibition at 10 µM is 7.7% and the EC50 was more than 10 µM.
